In PMC7898822, “RNA‐PROTACs: Degraders of RNA‐Binding Proteins” (Angewandte Chemie (International Ed. in English), 2020):

Tests used:
[1] = tested on: Lin28B; test: Western blot of Lin28B in K562 cells; assay type: cell-based, human; conditions: 48 h
Description: Finally, we tested RNA‐PROTACs for their ability to degrade their target in two cell lines: the embryonic NT2/D1 cell line, which expresses high levels of Lin28A, ^[13a] and K562 cells which express Lin28A and Lin28B. […] Suppression of the target was not quantitative, as is often observed from testing PROTAC reagents without an optimization of the targeting ligand, the linker and the E3 system. Furthermore, there was no statistical difference in the activity of the 7‐mer and 11‐mer reagents. […] The reagents had no discernible effect on cell toxicity (Figure S11). […] Finally, we co‐treated K562 cells with ORN3P1 and MG132, a reversible inhibitor of the 26S proteasome. […]
oligonucleotides ([…]) into 15N-labeled Lin28-ZnF12 in 10 mM HEPES pH 7.0, 1.5 mM β-mercaptoethanol, 0.15 mM ZnCl2 and monitored by 1H-15N-HSQC at 303K.
Fluorescence Polarization Assay. Fluorescence polarization titration assay was carried out by titrating Lin28_ZKD protein into FAM-labeled PreE-let-7 at a 10 nM final concentration and buffer (10 mM HEPES, 150 mM NaCl, 10 µM ZiCl2, pH 7,4). […] The fluorescence anisotropy was measured on a Spectra Max Paradigm multimode plate reader (Molecular Devices). The fluorescence polarization competition assay was carried out in a similar fashion, except compounds were titrated into buffer containing Lin28_ZKD and FAM-labeled preE-let-7. […]

[2] = target: T1, Lin28_ZKD (Homo sapiens, UniProt Q9H9Z2); test: Fluorescence polarization competition assay (displacement of let7FAM from Lin28_ZKD); assay type: binding; conditions: competition FP, conjugate vs parent
T1 construct: construct encoding amino acids 124–186 of human Lin28; His6; made in house; host or cells: Escherichia coli BL21 (DE3) Codon+ (RIL)
T1 sequence (Q9H9Z2 124-186): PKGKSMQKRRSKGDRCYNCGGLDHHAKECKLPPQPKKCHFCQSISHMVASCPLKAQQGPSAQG
Protocol: Fluorescence Polarization Assay. Fluorescence polarization titration assay was carried out by titrating Lin28_ZKD protein into FAM-labeled PreE-let-7 at a 10 nM final concentration and buffer (10 mM HEPES, 150 mM NaCl, 10 µM ZiCl2, pH 7,4). The assay plate was briefly vortexed, and air bubbles were removed by spinning at 1000 rpm. The fluorescence anisotropy was measured on a Spectra Max Paradigm multimode plate reader (Molecular Devices). The fluorescence polarization competition […]
preE-let-7. The concentration of Lin28_ ZKD is kept at 40 nM, a value in the range of the dissociation constant of Lin28_ZKD and preE-let-7 determined through fluorescence polarization titration assay, whereas preE-let-7 concentration is kept constant at 10 nM. FP competitive binding assays were performed on 384-well plates (#3575, Corning) with a total well volume of 10 µL.
Fluorescence polarization readings were transferred into Prism 7.0 (GraphPad). All fluorescence polarization assays were repeated at least three times and the anisotropy values fitted using GraphPad Prism software using 1:1 binding/inhibition model. […]

[3] = tested on: K562 cells; test: Intracellular uptake of FAM-labelled oligonucleotides, fluorescence microscopy; assay type: cell-based, human; conditions: FAM-conjugated, 1 µM, 24 h

**Q.** How did the “effect on Lin28B” value [1] turn out when CC[C@H](C)[C@H](NC(=O)[C@H](Cc1ccc(O)cc1)NC(=O)[C@@H]1C[C@@H](O)CN1C(=O)[C@H](C)NC(=O)[C@H](CC(C)C)NC(=O)CCCCCNC(=O)[C@@H](N)CSC1CC(=O)N(CCOP(=O)(S)OC[C@H]2O[C@@H](n3cnc4c(N)ncnc43)[C@H](OCCOC)[C@@H]2OP(=O)(S)OC[C@H]2O[C@@H](n3cnc4c(=O)[nH]c(N)nc43)[C@H](OCCOC)[C@@H]2OP(=O)(S)OC[C@H]2O[C@@H](n3cnc4c(=O)[nH]c(N)nc43)[C@H](OCCOC)[C@@H]2OP(=O)(S)OC[C@H]2O[C@@H](n3cnc4c(N)ncnc43)[C@H](OCCOC)[C@@H]2OP(=O)(S)OC[C@H]2O[C@@H](n3cnc4c(=O)[nH]c(N)nc43)[C@H](OCCOC)[C@@H]2OP(=O)(S)OC[C@H]2O[C@@H](n3cnc4c(N)ncnc43)[C@H](OCCOC)[C@@H]2OP(=O)(S)OC[C@H]2O[C@@H](n3cc(C)c(=O)[nH]c3=O)[C@H](OCCOC)[C@@H]2O)C1=O)C(=O)O (stereo partly drawn) [ORN3P1] was run?
**A.** Its value is “little effect on Lin28B”.

**Q.** What about the “competition for Lin28_ZKD relative to parent unconjugated oligonucleotides” value [2] of the same molecule?
**A.** Its value is “competed slightly more strongly”.

**Q.** What about the intracellular localization [3] of the same molecule?
**A.** Its intracellular localization is “present in the cytoplasm and nuclei of K562 cells”.
